Assay results from PubChem BioAssay (NCI).
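Exposure lasted 48 hours, with cells grown in 96-well plates and compounds tested at five concentrations. Abbreviation: GI50, concentration required for 50% inhibition of growth. TGI: concentration producing complete growth inhibition.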

Columns and labels:
Assay in all cases: DTP human tumour cell line panel, 48 h
HT29 colon = system: HT29 colon
K-562 leukemia = system: K-562 leukemia
KM12 colon = system: KM12 colon
NCI-H23 lung = system: NCI-H23 lung
NCI-H460 lung = system: NCI-H460 lung
SF-539 CNS = system: SF-539 CNS
SK-MEL-2 melanoma = system: SK-MEL-2 melanoma
SN12C renal = system: SN12C renal
SNB-75 CNS = system: SNB-75 CNS
HL-60(TB) leukemia = system: HL-60(TB) leukemia

SMILES	GI50 (HT29 colon) [µM]	TGI (HT29 colon) [µM]	GI50 (K-562 leukemia) [µM]	TGI (K-562 leukemia) [µM]	GI50 (KM12 colon) [µM]	TGI (KM12 colon) [µM]	GI50 (NCI-H23 lung) [µM]	TGI (NCI-H23 lung) [µM]	GI50 (NCI-H460 lung) [µM]	TGI (NCI-H460 lung) [µM]	GI50 (SF-539 CNS) [µM]	TGI (SF-539 CNS) [µM]	GI50 (SK-MEL-2 melanoma) [µM]	TGI (SK-MEL-2 melanoma) [µM]	GI50 (SN12C renal) [µM]	TGI (SN12C renal) [µM]	GI50 (SNB-75 CNS) [µM]	TGI (SNB-75 CNS) [µM]	TGI (HL-60(TB) leukemia) [µM]	GI50 (HL-60(TB) leukemia) [µM]
c1ccc2nc(Cn3c[n+](Cc4ccc5ccccc5n4)c4ccccc43)ccc2c1	1.48	9.87	1.25	11.8	1.61	4.54	1.47	10.3	2.8	12.3	2.61	12	2.61	6.87	2.19	10.9	2.09	9.13		
O=C1c2ccccc2C(=O)N1CC1(C(=O)O)NCCS1(=O)=O (centres undefined)		> 100		> 100		> 100		> 100		> 100		> 100		> 100		> 100			> 100	
CN(C)c1ccc2c(NCCCCCCNc3ccnc4cc(N(C)C)ccc34)ccnc2c1		> 100		> 100		> 100		27.2		57		45.2		82.5		> 100			> 100	
Cc1ccc2[nH]c(C(=O)NN3C(=O)CSC34CCCCC4C)c(-c3ccccc3)c2c1 (centres undefined)	14.4	36.9	10.8	42.1	14.9	34.7	17	33.2	18.2	43.7	19.5	38.4	20.9	38.7	17.7	34.2	19.6	38.1		
CCOC(=O)c1c2c(n(CC(C)C)c1C)-c1nc[nH]c1C(=O)C2=O	20.4	46.5	6.74	20.1	16.9	31.2			16.5	30.1	14	26.9	19.4	34	13.4	26.2			2.82	0.388
O=C(CCN1CCCC1)Nc1ccc2c(NCc3ccc(F)cc3)c3ccccc3nc2c1	0.377	1.85			0.431	1.62	0.413	1.67	0.336	1.15	0.443	1.63	1.21	2.7	0.39	1.66	0.506	1.87	2.34	0.55
COc1ccc(Cn2nc(-c3cc(OC)c(OC)c(OC)c3)c3c2CCc2cnoc2-3)cc1OC	3.8	> 100			3.89	37.6	3.43	64	3.28	> 100	3.11	36.1	6.06	> 100	5.25	> 100	1.39	5.64	2.28	0.113
COc1cc(/C=C\c2ccccn2)cc(OC)c1OC		> 100		> 100		> 100		> 100		> 100		> 100				> 100		> 100	> 100	
COc1cccc(OC(=O)c2ccccc2Nc2ccnc(C(F)(F)F)c2)c1	3.68	> 100	0.739	> 100			2.04	6.73	4.1	> 100			34.4	> 100	5.33	41.2			15.2	2.15
C=C1C(=O)OC2CC3(C)C=CC(=O)C(=C)C3CC12 (centres undefined)		3.45		> 100		5.57		3.48		7.12		3.97		3.13		3.46		14.7		
Nc1cc(=O)[nH]c(SC2=NC(N)CC(O)C2)n1 (centres undefined)		> 100		> 100		> 100		> 100		> 100		> 100		> 100		> 100		> 100		
COC(=O)CCC(=O)N1Cc2cc(C)ccc2N(C(=O)CCC(=O)OC)Cc2cc(C)ccc21		> 100		> 100		> 100		> 100		> 100		> 100		> 100		> 100			> 100	
COc1ccc2c(c1)CCC1C2CCC2(C)C1CCC2(O)CNC(=O)CCCCC1CCSS1 (centres undefined)	2.28	6.81	2.63	> 100	2.26	> 100	20.8	> 100	3.25	> 100	18.3	90.8	33.2	> 100	16.6	> 100				
C=CCC(N[C@H](CO)C(C)C)c1cn(C(=O)OCC)c2ccccc12 (some centres undefined)	36.1	> 100	11.1	25.8	21.7	59.7	19.1	49.3	32.4	> 100	28.2	69.9	42.3	> 100	19.7	51.6	69.3	> 100		
CN(C)CCCNC(=O)c1cc(NC(=O)CCNS(=O)(=O)c2ccc3c(c2)C(=O)c2ccccc2C3=O)cn1C	> 100	> 100	> 100	> 100	> 100	> 100	> 100	> 100	> 100	> 100	> 100	> 100	> 100	> 100	> 100	> 100				
C=C1C(=O)O[C@H]2C[C@@H](C)[C@@H]3CC(=O)OC[C@@]3(C)CC12 (some centres undefined)		50.1		68.5		62		62.5		51		48		> 100		60.8		> 100		
O=C(CC1Sc2ccccc2NC1=O)Nc1cc(Cl)ccc1Cl (centres undefined)		> 100		> 100				> 100		> 100		> 100		> 100		> 100		> 100	> 100	
